Data reported in the supplement of paper PMC10307832.

Key:
Assay in all cases: relative viability (nuclei count vs DMSO), 5 days (fraction); higher = more cells survive
Entinostat + Luminespib = compound: Nc1ccccc1NC(=O)c1ccc(CNC(=O)OCc2cccnc2)cc1 [Entinostat] + CCNC(=O)c1noc(-c2cc(C(C)C)c(O)cc2O)c1-c1ccc(CN2CCOCC2)cc1 [Luminespib] (partner 0.01 µM)
Method in brief: (§1)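 Five library-drug doses in √10 steps were combined with a fixed anchor-drug dose, or a single drug was given alone, by pin tool to lung cancer cell lines in 1536-well plates the day after seeding. Nuclei were stained and counted after 5 days. Relative viability is the nuclei count in treated wells over that in vehicle wells, taken as the median of duplicate plates.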

SGI-1776 + Foretinib = compound: CN1CCC(CNc2ccc3ncc(-c4cccc(OC(F)(F)F)c4)n3n2)CC1 [SGI-1776] + COc1cc2c(Oc3ccc(NC(=O)C4(C(=O)Nc5ccc(F)cc5)CC4)cc3F)ccnc2cc1OCCCN1CCOCC1 [Foretinib] (partner 0.25 µM)
Method in brief: as §1

Entinostat + Bortezomib = compound: Nc1ccccc1NC(=O)c1ccc(CNC(=O)OCc2cccnc2)cc1 [Entinostat] + CC(C)C[C@H](NC(=O)[C@H](Cc1ccccc1)NC(=O)c1cnccn1)B(O)O [Bortezomib] (partner 0.002 µM)
Method in brief: as §1

[1] = compound: C1COCCN1C2=NC(=NC3=C2OC4=C3C=CC=N4)C5=CC(=CC=C5)NC(=O)C6=CN=C(C=C6)N + COc1cc2c(Oc3ccc(NC(=O)C4(C(=O)Nc5ccc(F)cc5)CC4)cc3F)ccnc2cc1OCCCN1CCOCC1 [Foretinib] (partner 0.25 µM)
Method in brief: as §1

| Cell Line | relative viability (Entinostat + Luminespib; first compound 0.02 µM) | relative viability (Entinostat + Luminespib; first compound 0.06325 µM) | relative viability (Entinostat + Luminespib; first compound 0.2 µM) | relative viability (Entinostat + Luminespib; first compound 0.6325 µM) | relative viability (Entinostat + Luminespib; first compound 2 µM) | relative viability (SGI-1776 + Foretinib; first compound 0.08 µM) | relative viability (SGI-1776 + Foretinib; first compound 0.8 µM) | relative viability (SGI-1776 + Foretinib; first compound 2.53 µM) | relative viability (SGI-1776 + Foretinib; first compound 8 µM) | relative viability (Entinostat + Bortezomib; first compound 0.02 µM) | relative viability (Entinostat + Bortezomib; first compound 0.06325 µM) | relative viability (Entinostat + Bortezomib; first compound 0.2 µM) | relative viability (Entinostat + Bortezomib; first compound 0.6325 µM) | relative viability (Entinostat + Bortezomib; first compound 2 µM) | relative viability ([1]; first compound 0.02 µM) | relative viability ([1]; first compound 0.06325 µM) | relative viability ([1]; first compound 0.2 µM) | relative viability ([1]; first compound 0.6325 µM) | relative viability ([1]; first compound 2 µM) |
| --- | --- | --- | --- | --- | --- | --- | --- | --- | --- | --- | --- | --- | --- | --- | --- | --- | --- | --- | --- |
| NCI-H1437 | 0.829 | 0.853 | 0.552 | 0.301 | 0.257 | 1.23 | 1.29 | 1.37 | 1.17 | 0.438 | 0.323 | 0.239 | 0.168 | 0.126 | 1.31 | 1.29 | 1.2 | 1.27 | 0.856 |
| EKVX | 0.986 | 0.913 | 0.794 | 0.801 | 0.427 | 1.36 | 0.837 | 0.863 | 0.749 | 1.1 | 0.992 | 0.999 | 0.853 | 0.445 | 0.97 | 1.01 | 0.773 | 0.751 | 0.339 |
| NCI-H460 | 0.0255 | 0.0353 | 0.0291 | 0.0258 | 0.0328 | 1.01 | 0.947 | 0.998 | 0.716 | 1.09 | 1.05 | 0.85 | 0.0581 | 0.0179 | 1.11 | 1.23 | 1.12 | 1.08 | 0.545 |
| NCI-H1993 | 0.968 | 1.08 | 0.925 | 0.771 | 0.275 | 0.819 | 0.761 | 0.688 | 0.695 | 1.1 | 1.16 | 1 | 0.723 | 0.543 | 0.879 | 0.837 | 0.732 | 0.723 | 0.665 |
| HCC-78 | – | – | – | – | – | 0.553 | 0.566 | 0.595 | 0.606 | 0.551 | 0.389 | 0.27 | 0.217 | 0.213 | 0.466 | 0.553 | 0.587 | 0.531 | 0.425 |
| NCI-H2087 | 0.157 | 0.125 | 0.18 | 0.127 | 0.143 | 1.1 | 1.17 | 0.843 | 0.376 | 0.883 | 0.837 | 0.761 | 0.425 | 0.274 | 1.03 | 1.28 | 1.05 | 0.962 | 0.741 |
| H3255 | 1.02 | 0.954 | 0.652 | 0.613 | 0.321 | 1.02 | 0.994 | 0.801 | 0.864 | 0.797 | 0.844 | 0.577 | 0.401 | 0.28 | 0.985 | 0.97 | 0.865 | 0.754 | 0.718 |
| NCI-H2126 | 0.815 | 0.906 | 0.894 | 0.766 | 0.462 | 1.29 | 1.27 | 1.44 | 1.06 | 1.13 | 1.11 | 1.1 | 0.885 | 0.809 | 1.19 | 1.24 | 1.1 | 0.977 | 1.04 |
| LCLC-103H | 0.979 | 0.967 | 0.909 | 0.715 | 0.288 | 0.88 | 0.705 | 0.748 | 0.637 | 1.05 | 1.04 | 1.11 | 0.868 | 0.498 | 0.872 | 0.777 | 0.789 | 0.643 | 0.474 |
| RERF-LC-KJ | 1.13 | 1.16 | 1.02 | 0.438 | 0.322 | 0.879 | 0.894 | 0.879 | 0.78 | 1.06 | 1.21 | 0.998 | 0.643 | 0.417 | 0.879 | 0.953 | 0.888 | 0.883 | 0.624 |
| EBC-1 | – | – | – | – | – | 0.0952 | 0.0955 | 0.127 | 0.0874 | 0.564 | 0.599 | 0.293 | 0.196 | 0.176 | 0.115 | 0.0996 | 0.111 | 0.102 | 0.0879 |
| HCC-15 | 0.352 | 0.301 | 0.261 | 0.359 | 0.257 | 0.989 | 1.07 | 1.04 | 0.824 | 1.02 | 0.945 | 0.876 | 0.403 | 0.413 | 1.05 | 1.15 | 1.06 | 0.947 | 0.677 |
| NCI-H1650 | 0.214 | 0.198 | 0.185 | 0.212 | 0.195 | 1.02 | 0.974 | 0.729 | 0.447 | 0.194 | 0.226 | 0.2 | 0.214 | 0.214 | 1.12 | 1.15 | 0.974 | 1.22 | 0.76 |
| COR-L 105 | 0.803 | 0.749 | 0.72 | 0.561 | 0.345 | 0.857 | 1.1 | 0.72 | 0.734 | 0.608 | 0.914 | 0.926 | 0.484 | 0.313 | 0.915 | 1.28 | 0.764 | 0.969 | 0.777 |
| NCI-H596 | 0.836 | 0.935 | 0.992 | 0.905 | 0.597 | 0.808 | 0.748 | 0.79 | 1.05 | 1.09 | 1.16 | 1 | 0.974 | 0.902 | 1.13 | 0.813 | 0.893 | 0.709 | 0.616 |
| LXF-289 | 0.754 | 0.675 | 0.739 | 0.494 | 0.354 | 0.98 | 0.974 | 1.01 | 0.971 | 1.01 | 0.986 | 0.96 | 0.725 | 0.646 | 0.994 | 1 | 0.985 | 0.952 | 0.747 |
| NCI-H1703 | – | – | – | – | – | 0.403 | 0.322 | 0.291 | 0.282 | 0.314 | 0.383 | 0.308 | 0.265 | 0.149 | 0.284 | 0.413 | 0.371 | 0.305 | 0.285 |
| NCI-H2170 | 0.778 | 0.654 | 0.643 | 0.47 | 0.329 | 0.959 | 1 | 1.02 | 0.987 | – | – | – | – | – | 0.953 | 0.843 | 1.05 | 1.07 | 0.68 |
